Values of other authors, collected in paper PMC10340464, “Identification of a Novel SSTR3 Full Agonist for the Treatment of Nonfunctioning Pituitary Adenomas” (Cancers, 2023).

Conditions: at high doses; ref manuscript in preparation; cited from earlier work
Excerpt: One important aspect relates to safety margins. Hyperglycemia is a common side effect of SSTR panagonists such as Pasireotide. […] What remains to be ascertained clinically is whether the higher agonistic activity on SSTR3 may allow us to define a dose at which full receptor engagement is observed in the absence of significant hyperglycemia.

COc1cc2cccc(OC)c2cc1C[C@H]1NC(=O)[C@H](Cc2ccc(O)cc2)NC(=O)[C@@H]2C[C@@H](OC(=O)NCCN)CN2C(=O)[C@H](Cc2ccccc2)NC(=O)[C@H](Cc2ccc(OCc3ccccc3)cc2)NC(=O)[C@H](CCCCN)NC1=O [ITF2984, Cyclo[Tyr(Bn)-Phe-Pro(4-OCONH(CH2)2NH2)-Tyr-3,8-diMeONal-Lys]]
glycemia in clinical studies: increased glycemia
